{
  "source": "patent US20150174202A1",
  "about": "“Methods and Compositions for Modulating Beta Cell Proliferation” (The Board of Trustees of the Leland Stanford Junior …, priority 2011, published 2015)",
  "key": {"[1]": {"assay": "Serum PDGF-AA by ELISA in NOD-scid mice with osmotic pump", "format": "in vivo, mouse", "details": "control NOD-scid mice, subcutaneous osmotic pump primed with 4 μg PDGF-AA", "excerpt": "Exposure of islets from young human donors to purified PDGF-AA stimulates ERK-dependent signaling pathways culminating in enhanced β-cell proliferation. However, these studies have not yet shown if PDGF-AA activation is sufficient to drive regeneration of functional β-cell mass in vivo. To assess this question, equivalent numbers of size-matched islets from young (ages 1-10 years) and control adult donors (age >20 years) were transplanted into NOD-scid mice."}, "EZH2": {"test_system": "EZH2", "assay": "EZH2/EZH1 mRNA in cultured human islets (real-time RT-PCR)", "format": "cell-based", "details": "PDGF-AA 50 ng/ml, 2 days", "protocol": "Total RNA from freshly isolated or cultured islets after indicated treatments were purified using the Absolutely RNA miniprep purification kit (Stratagene) according to the manufacturer's instructions. RNA concentration was measured with a RiboGreen RNA quantification assay (Invitrogen). One-step quantitative RT-PCR was performed and analysed using an ABI Prism 7300 detection system (Applied Biosystems) with TaqMan one-step RTPCR Master Mix Reagents and appropriate amounts (10-100 ng) of islet total RNA as the template. We calculated the ratio of mRNA for the gene of interest to the amount of internal control mRNA of peptidylprolyl isomerase A (cyclophilin A, PPIA), and then normalized the ratio for each gene to its median. For islet studies, human islets were isolated either at Pittsburgh University Medical Center or the University of Alabama, Birmingham. Eight independent human islet preparations from juvenile donors at the age of 8 months, 1.0, 1.5, 2, 3, 4, 5 and 6 years, and three adult islet preparations from donors at the age of 39, 48 and 56 years were used in this study. After isolation, fresh islets were hand-picked and transferred to RPMI-1640 medium supplemented with 0.5% FBS, 0.2% BSA and 2% penicillin/streptomycin for an overnight recovery before experiments. […] To detect in vitro human islet β-cell proliferation stimulated by PDGF-AA, human islets were exposed to 50 μM BrdU for 24 h. Afterwards, human islets were processed in a similar way as in mouse islet studies for immunostaining of insulin, glucagon, PDX1 and BrdU. β-Cell proliferation rate was determined by quantifying percentage of insulin+ cells with BrdU+. More than 50 islets per group were counted for determining cultured human islet β-cell proliferation rate."}, "[2]": {"test_system": "INSULIN+ cells in human islet grafts", "assay": "Human β-cell replication in islets transplanted into NOD-scid mice with PDGF-AA infusion", "format": "in vivo", "excerpt": "Exposure of islets from young human donors to purified PDGF-AA stimulates ERK-dependent signaling pathways culminating in enhanced β-cell proliferation. However, these studies have not yet shown if PDGF-AA activation is sufficient to drive regeneration of functional β-cell mass in vivo. To assess this question, equivalent numbers of size-matched islets from young (ages 1-10 years) and control adult donors (age >20 years) were transplanted into NOD-scid mice. […] PDGF-AA infusion stimulated β-cell expansion in human islet grafts. A 200% increase of INSULIN^+ cell BrdU incorporation in grafts from young human donors (n=3 independent juvenile donors, three week PDGF-AA infusion; FIG. 26B-C). By contrast, we observed no increase of BrdU incorporation by INSULIN^+ cells in adult islet grafts (n=2), as expected based on our prior observation that adult β-cells no longer express Pdgf receptor α or Pdgf receptor β. Promoting the expression of Pdgf receptor on adult islet β-cells, e.g. by promoting Wnt signaling and/or preventing DNA methylatransferase activity, will render these adult islet β-cells sensitive to PGF-AA infusion."}, "[3]": {"details": "grafts from young human donors, three week PDGF-AA infusion"}},
  "data": [
    {"substance": "PDGF-AA: recombinant human PDGF-AA, a homodimer of PDGF alpha polypeptides", "values": [
      {"measurement": "serum PDGF-AA levels", "setting": "[1]", "result": "Increased"},
      {"measurement": "EZH2 mRNA levels", "setting": "EZH2; adult human islets", "result": "not induced"},
      {"measurement": "EZH2 mRNA levels", "setting": "EZH2; juvenile human islets", "result": "increased"},
      {"measurement": "BrdU incorporation by INSULIN+ cells", "setting": "[2]; adult human islet grafts, PDGF-AA infusion", "result": "no increase"},
      {"measurement": "INSULIN+ cell BrdU incorporation (in words)", "setting": "[2]; [3]", "result": "Increase"},
      {"measurement": "increase of INSULIN+ cell BrdU incorporation", "setting": "[2]; [3]", "result": 200, "unit": "%"}
    ]}
  ]
}
